{
  "source": "patent US20060258716A1",
  "about": "“Methods and compositions for the treatment of helicobacter pylori-associated diseases using endoperoxide bridge-containing compounds” (priority 2003, published 2006)",
  "key": {"H. pylori [1]": {"system": "H. pylori", "test": "Growth inhibition of H. pylori (MIC), growth monitored by spectrophotometer", "assay_type": "cell-based", "conditions": "for minimal inhibitory concentration (MIC): Example 4, FIG. 4", "protocol": "(§1) To test the effect of artemisinin on the growth of H. pylori, freshly prepared bacteria were exposed to various concentrations of artemisinin. Bacteria were grown for fixed incubation times and their growth levels were monitored using a spectrophotometer. The growth of treated bacteria was compared to that of non-treated bacteria.\nas §1, with “effectivity” for “effect”, “artemisinin derivatives” for “artemisinin”, “artemisinin derivatives.” for “artemisinin.”"}, "H. pylori [2]": {"system": "H. pylori", "test": "Anti-Helicobacter activity of artesunate after pre-incubation in simulated gastric fluid", "assay_type": "cell-based", "conditions": "1 mg/ml pre-incubated in SGF pH 1.2 at 37° C. up to 24 h, cultures then exposed 36 h, FIG. 6", "protocol": "Artesunate (1 mg/ml) was pre-incubated in simulated gastric fluid (SGF, pH 1.2) or in bacterial broth medium (BBM, natural pH) at 37° C. for various time periods (1, 2, 4, 6, and 24 hours). After the pre-incubation, bacterial cultures (0.01 O.D) were exposed for 36 h to culture medium containing the pre-incubated artesunate. The effect of artesunate on bacterial growth was then determined by spectrophotometer."}, "[3]": {"system": "H. pylori bacterial strain SS1", "test": "H. pylori-infected mice, colony forming units from homogenized stomach", "assay_type": "in vivo", "conditions": "oral 50 mg/kg 3 times/day for 8 days, day 4 and 8, versus placebo, FIG. 7", "protocol": "The effect of artesunate against H. pylori infection in vivo was tested in H. pylori-infected mice. Mice were infected by inoculation (×3/day) with suspension of 10^9 H. pylori bacterial strain SS1. Two weeks following the infection, mice were treated orally with 50 mg/kg artesunate 3 times/day for 8 days. The level of bacterial infection was determined by counting the number of colony forming units derived from the homogenized stomach on day 4 and 8 of the treatment."}, "H. pylori [4]": {"system": "H. pylori", "test": "Timed artesunate exposure and wash-out, regrowth of H. pylori cultures", "assay_type": "cell-based", "conditions": "0.625 or 6.25 mM, exposure 0.5-18 hours, then 36 hours artesunate-free medium, FIG. 5", "protocol": "Artesunate (0.625 or 6.25 mM) was added to bacterial cultures (0.2 O.D.600) for various time points (0.5, 1, 2, 4, 6, and 18 hours). Artesunate was then washed out from the cultures by precipitation of the bacteria and washing in PBS, after which bacteria were re-suspended in a fresh artesunate-free medium. Bacteria were maintained in artesunate-free medium for additional 36 hours and bacterial growth was then determined by spectrophotometer."}, "ulcerative lesion index": {"system": "ulcerative lesion index", "conditions": "lesions produced by ethanol and indomethacin in rats; cited from earlier work"}, "anaerobic bacteria": {"system": "anaerobic bacteria", "conditions": "cited from earlier work"}, "H. pylori [5]": {"system": "H. pylori", "test": "Minimal bactericidal concentration: treated H. pylori plated on solid medium, colonies counted", "assay_type": "cell-based", "conditions": "no colony-forming units on solid medium", "protocol": "To further determine the antibacterial effect of artemisinin, H. pylori maintained in the presence of various concentrations of artemisinin were plated on solid medium and the number of single colonies was monitored."}, "H. pylori [6]": {"system": "H. pylori", "test": "Combined effect of artemisinin and omeprazole on H. pylori growth", "assay_type": "cell-based", "conditions": "0.5 μg/ml artemisinin alone, 3 days", "protocol": "In order to explore the possible synergism between artemisinin and a PPI, the growth of bacteria in the presence of artemisinin, omeprazole or both was examined. H. pylori bacteria were grown in the presence of 3-24 μg/ml omeprazole or 0.5-4 μg/ml of artemisinin. Bacterial cultures were incubated in micro-aerophilic conditions. The combined effect of artemisinin and omeprazole on bacterial growth was tested using a spectrophotometer after 3 days."}, "[7]": {"system": "Lactobacillus acidophilus", "test": "MBC against Lactobacillus acidophilus", "assay_type": "cell-based", "conditions": "L. acidophilus", "protocol": "(§2) The effect of artemisinin on the growth and viability of Lactobacillus acidophilus (L. acidophilus) that is part of the normal flora of the intestine was examined. L. acidophilus bacteria were grown with various concentration of artemisinin and its effect was determined."}, "[8]": {"system": "H. pylori exhibiting resistance to clarithromycin (CLR) and metronoidazole", "test": "Growth of clarithromycin- and metronidazole-resistant H. pylori strains", "assay_type": "cell-based", "conditions": "2.5-10 μM artemisinin, 3 days, micro-aerophilic conditions, FIG. 2", "protocol": "Unsuccessful therapy in patients infected with H. pylori is frequently correlated to clarithromycin and metronidazole resistance. […] Bacterial cultures were incubated in micro-aerophilic conditions. The effect of clarithromycin or artemisinin on bacterial growth was tested using a spectrophotometer after 3 days."}, "[9]": {"system": "Lactobacillus acidophilus", "test": "MIC / growth of Lactobacillus acidophilus", "assay_type": "cell-based", "protocol": "as §2"}, "E. coli": {"system": "E. coli", "test": "MBC against E. coli", "assay_type": "cell-based", "protocol": "(§3) To determine whether the effect of artemisinin is specific to H. pylori, the ability of artemisinin to inhibit the growth of E. coli and P. acnes was tested. In contrary to H. pylori, which is a microaerophilic bacterium, E. coli is an aerobic intestinal bacterium, and P. acnes is an anaerobic dermal bacterium. These bacteria were exposed to various concentrations of artemisinin, and MIC and MBC values were determined."}, "P. acnes": {"system": "P. acnes", "test": "MBC against P. acnes", "assay_type": "cell-based", "protocol": "as §3"}, "cancer cells": {"system": "cancer cells", "conditions": "cited from earlier work"}, "[10]": {"system": "wild type of E. coli having intact DNA gyrase genes", "conditions": "cited from earlier work"}, "[11]": {"system": "E. coli strains defective in DNA-gyrase enzyme", "conditions": "cited from earlier work"}},
  "data": [
    {"molecule": "CCO[C@H]1O[C@@H]2O[C@@]3(C)CC[C@H]4[C@H](C)CC[C@@H]([C@H]1C)[C@@]24OO3", "note": "[arteether]", "values": [
      {"measurement": "minimal inhibitory concentration (MIC)", "setting": "H. pylori [1]", "result": "0.15 to 0.3", "unit": "µM"}
    ]},
    {"molecule": "C[C@H]1[C@H](OC(=O)CCC(=O)O)O[C@@H]2O[C@@]3(C)CC[C@H]4[C@H](C)CC[C@@H]1[C@@]24OO3", "note": "[artesunate]", "values": [
      {"measurement": "Anti-Helicobacter activity after pre-incubation in low pH", "setting": "H. pylori [2]", "result": "preserved"},
      {"measurement": "Number of colony forming units from homogenized stomach", "setting": "[3]", "result": "efficiently reduced the number of colony forming units"},
      {"measurement": "Bacterial growth after wash-out of artesunate", "setting": "H. pylori [4]", "result": "irreversible bacterial eradication"}
    ]},
    {"molecule": "C[C@@H]1CC[C@H]2[C@@H](C)C(=O)O[C@@H]3O[C@@]4(C)CC[C@@H]1[C@]32O4", "note": "[deoxyartemisinin]", "values": [
      {"measurement": "Gastric cytoprotection (ulcerative lesion index)", "setting": "ulcerative lesion index", "result": "provided gastric cytoprotection"}
    ]},
    {"molecule": "C[C@@H]1CC[C@H]2[C@@H](C)C(=O)O[C@@H]3O[C@@]4(C)CC[C@@H]1[C@]32OO4", "note": "[artemisinin]", "values": [
      {"measurement": "Anti-microbial activity", "setting": "anaerobic bacteria", "result": "possesses an anti-microbial activity"},
      {"measurement": "MIC (minimal inhibitory concentration)", "setting": "H. pylori [1]; Example 1, Table 1", "result": 2.5, "unit": "µM"},
      {"measurement": "MBC (minimal bactericidal concentration)", "setting": "H. pylori [5]", "result": "125 to 250", "unit": "µM"},
      {"measurement": "Bacterial growth, artemisinin alone", "setting": "H. pylori [6]", "result": "not effective alone"},
      {"measurement": "MBC (minimal bactericidal concentration)", "setting": "[7]", "result": ">5000", "unit": "µM"},
      {"measurement": "Sensitivity of clarithromycin- and metronidazole-resistant H. pylori strains", "setting": "[8]", "result": "significant sensitivity"},
      {"measurement": "MIC (minimal inhibitory concentration)", "setting": "[9]; L. acidophilus", "result": ">5000", "unit": "µM"},
      {"measurement": "Effect on growth of L. acidophilus", "setting": "[9]; any used concentration below 5 mg/ml", "result": "did not affect the growth"},
      {"measurement": "MBC (minimal bactericidal concentration)", "setting": "E. coli", "result": ">5000", "unit": "µM"},
      {"measurement": "MBC (minimal bactericidal concentration)", "setting": "P. acnes", "result": ">5000", "unit": "µM"},
      {"measurement": "Concentration range toxic to cancer cells in vitro", "setting": "cancer cells", "result": "20 to 180", "unit": "µM"}
    ]},
    {"molecule": "dihydro-epideoxyarteannuin B", "values": [
      {"measurement": "Gastric cytoprotection (ulcerative lesion index)", "setting": "ulcerative lesion index", "result": "provided gastric cytoprotection"}
    ]},
    {"molecule": "CCO[C@@H]1O[C@@H]2O[C@]3(C)CC[C@H]4[C@H](C)CC[C@@H]([C@H]1C)[C@@]24OO3", "note": "[α-arteether]", "values": [
      {"measurement": "Sensitivity", "setting": "[10]", "result": "not sensitive"},
      {"measurement": "Growth inhibition", "setting": "[11]", "result": "inhibits the growth"}
    ]},
    {"molecule": "CO[C@H]1O[C@@H]2O[C@@]3(C)CC[C@H]4[C@H](C)CC[C@@H]([C@H]1C)[C@@]24OO3", "note": "[artemether]", "values": [
      {"measurement": "minimal inhibitory concentration (MIC)", "setting": "H. pylori [1]", "result": "0.3 to 0.6", "unit": "µM"}
    ]}
  ]
}
